Experimental data from patent US9573972B2, “Nurotoxic sterol glycosides” (priority 2008, dated 2017).
Entries after “also recorded” stand apart in the source; their conditions may differ.

How the values were obtained:
[1] = tested on: Phosphorylated tau aggregates; assay: Tau immunohistochemistry; assay type: in vivo, mouse; set-up: key to Phosphorylated tau aggregates: − = not present; + = present; details: for Phosphorylated tau aggregates: SG-fed
Experimental: Slide-mounted lumbar and thoracic spinal cord and brain sections were first rinsed for 45 minutes in 3 changes of PBS then quenched in 3% H2O2 in PBST (PBS+0.5% Triton X-100) for 10 minutes. The slides were rinsed for 4 minutes in 2 changes of PBST. The MOM mouse Ig blocking reagent was prepared as per the manufacturer's instructions. Two drops of mouse Ig stock solution was added to 2.5 mL of PBS. The sections were incubated with this solution for 1 hour at RT. Following this step, sections were rinsed for 4 minutes in 2 changes of PBST and incubated (5 minutes) with the MOM diluent solution prepared by adding 600 V1 of MOM protein concentrate to 7.5 mL of PBS. The diluent was tipped off the slides and replaced by a solution comprised of primary phospho-Tau antibody diluted at 1:100 in the diluent solution prepared in the same manner as discussed above. The sections were incubated for 60 minutes at RT. Subsequently, sections were rinsed for 4 minutes in 2 changes of PBST and incubated for 10 minutes in the MOM biotinylated anti-mouse IgG reagent (10 V1 of MOM biotinylated anti-mouse IgG diluted in 2.5 mL of the MOM diluents). The sections were then rinsed in PBST and incubated (1 hour at RT) with the secondary antibody prepared by combining one drop of secondary antibody (biotinylated goat-anti-rabbit IgG) from the Vectastain ABC Elite kit (Vector Laboratories, Burlingame, Calif., USA) was combined with 3 drops of serum stock to 10 mL of PBST. At 30 minutes after start of slide incubation with the secondary antibody, an immunoperoxidase solution was prepared by adding 2 drops of reagent A and 2 drops of reagent B (Vectastain Elite ABC kit, Vector Laboratories, Burlingame, Calif., USA) to 2.5 mL of PBST. After one hour incubation of the slides with the secondary antibody solution, the slides were rinsed for 4 minutes in two changes of PBST and incubated for 30 minutes in the working immunoperoxidase solution. Next, the sections were rinsed for 4 minutes in 2 changes of PBST. During the rinses, the DAB liquid substrate was prepared for the next step. As per manufacturer's instructions, 2 drops of buffer stock solution, 5 mL of ddH2O, 4 drops of DAB stock solution, and 2 drops of hydrogen peroxide solution were combined. The slides were incubated for 3 minutes at RT with this DAB solution and monitored for color development. The sections were rinsed for 5 minutes in ddH2O to stop the reaction and rid slides of DAB substrate. A methyl green nuclear counterstain was used to elucidate nuclei and motor neuron somata. The 0.5% methyl green counterstain was prepared in the following manner: First, the sodium acetate buffer was prepared with 1.36 g of sodium acetate trihydrate to 100 mL of distilled water adjusted to pH 4.2 using glacial acetic acid. For every 100 mL of buffer, 0.5 g of methyl green (ethyl violet, Sigma-Aldrich, Oakville, ON, Canada) was added to make a 0.5% methyl green solution. Slide-mounted sections were stained in the above methyl green solution for 5 minutes at RT. Sections were rinsed in distilled water, until the water became clear. […]
The numbers of immunoreactive somata or inclusions were counted across the ventral horn of the spinal cord, across brain hemispheres, or per dorsal or ventral root with the 40× objective lens in a 600 μm/600 μm area within region perimeters defined by a mouse brain atlas (2001). […]

[2] = tested on: Cytochrome c oxidase; assay: Cytochrome c oxidase histochemistry; assay type: in vivo, mouse; details: SG-fed vs control
Experimental: Tissue-mounted slides were processed for […] in a manner adapted from (Seligman et al., J. Cell. Biol. 1968; 38: 1-14) and Wong-Riley, (1979), Brain Res. 171, 11-28. Sections were rinsed in coplin jars for 15 minutes at RT in three changes of PBS and subsequently incubated with a media comprised of 50 mg of 3,3′-diaminobenzidine tetrahydrochloride (DAB) (DAB substrate system, Vector Laboratories, Burlingame, Calif., USA), 90 mL 0.1M phosphate buffer, 20 mg cytochrome c (type III, Sigma-Aldrich Co., Oakville, ON, Canada), and 4 g of sucrose in a dish submerged in a water bath maintained at 37° C. in the dark for 2 hours. The sections were monitored closely for the brown reaction product to appear within the tissue. Once a medium-brown color was achieved, slides were removed from the incubation media and rinsed for 15 minutes in three changes of PBS to stop the reaction. This was followed with a 2 minutes rinse in distilled water to remove residue from the slides. The slides were dried under a fume hood and cover-slipped with Entellen (Merck, Darmstadt, Germany).
The numbers of immunoreactive somata or inclusions were counted across the ventral horn of the spinal cord, across brain hemispheres, or per dorsal or ventral root with the 40× objective lens in a 600 μm/600 μm area within region perimeters defined by a mouse brain atlas (2001). For each animal, eight cross-sections per spinal cord or brain region were studied. […] For quantification of the level of mitochondrial activity (cytochrome c oxidase labelling) in the lumbar spinal cord or tyrosine hydroxylase immunoreactivity in the substantia nigra pars compacta and striatal sections, images captured using the Motic B5 Professional Series 3.0 microscope (Motic Instruments Inc., Richmond, ON) and analyzed using Motic B5 Professional, Motic Images Advanced 3.0 (Motic Instruments Inc., Richmond, ON) were scanned into a TIFF format file and analysed using the NIH Image J 1.37 software to measure density levels of antibody labelling. […]

Structure (SMILES): CC[C@H](/C=C/[C@@H](C)[C@H]1CC[C@H]2[C@@H]3CC=C4C[C@@H](O[C@@H]5O[C@H](CO)[C@@H](O)[C@H](O)[C@H]5O)CC[C@]4(C)[C@H]3CC[C@]12C)C(C)C [SG, Stigmasterol β-D-Glucopyranoside]
- Apoptosis of phosphorylated-tau containing cells ([1]; SG-fed animals at 52 weeks): majority of the phosphorylated-tau containing cells were actively undergoing apoptosis
- Phosphorylated tau aggregates ([1]; Time-point 1 (35 wk)): −
- Phosphorylated tau aggregates ([1]; Time-point 2 (52 wk)): +
- Phosphorylated tau aggregates, incidence in SG-fed group ([1]; Time-point 2 (52 wk)): 2/8
- Accumulation of phosphorylated tau ([1]; ventral horn of lumbar spinal cord, SG-fed mice, none in non-treated mice): induced accumulation of phosphorylated tau; also recorded: Phosphorylated Tau aggregates were observed
- Cytochrome c oxidase activity ([2]; Time-point 1 (35 wk)): (ns)
- Cytochrome c oxidase activity ([2]; Time-point 2 (52 wk)): (ns)
- Cytochrome c oxidase activity, difference between groups ([2]; at 35 or 52 weeks): no significant differences
